In PubChem BioAssay (NCI) one finds TGI data, which are given here for 31 compounds.

The term TGI denotes the concentration at which net growth stops. Read a high TGI as less potent growth arrest.

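1) Cells in 96-well plates. 2) Compound, 48 h, 5 concentrations. 3) Linear interpolation between surrounding doses. 4) Unreached endpoint = highest concentration. TGI: total growth inhibition.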

Among the test systems are COLO 205 colon; SK-MEL-5 melanoma; SK-MEL-2 melanoma.
Test in all cases: DTP human tumour cell line panel, 48 h

With `C=CCNC(=O)NC(=O)CSC1=NNC2(C(=O)N1)c1ccccc1-c1ccccc12`, the TGI in the experiment on COLO 205 colon and with SK-MEL-5 melanoma was greater than 10 µM in each case.

As to `COC(=O)C1(C(=O)OC)Cc2ccc(OC)cc2C2=C1C(=O)c1ccccc1C2=O`, the TGI was 40.5 µM with COLO 205 colon, 15.7 µM in the experiment on SK-MEL-2 melanoma and 19.3 µM in the experiment with SK-MEL-5 melanoma.

As to `CCOC(=O)P(=O)(O)c1ccc(N(C)Cc2ccccc2)cc1`, the TGI with COLO 205 colon, in the experiment with SK-MEL-2 melanoma and in the experiment on SK-MEL-5 melanoma was greater than 100 µM throughout.

With `CCCCCCCCCCCCCCCCCCNC(=O)C(N)Cc1ccc(OCc2ccccc2)cn1` (stereo not drawn), the TGI in the experiment with COLO 205 colon is 28.8 µM; in the experiment on SK-MEL-2 melanoma, 33.3 µM; in the experiment on SK-MEL-5 melanoma it was 31.9 µM.

On to `COC(=O)C1(CCC(C)=O)CCCCCC1=O` (stereo not drawn), for which the TGI with COLO 205 colon, in the experiment with SK-MEL-2 melanoma and in the experiment with SK-MEL-5 melanoma was greater than 100 µM each time.

Consider `O=[N+]([O-])/C(C(Cl)=C(Cl)Cl)=C(\N1CCOCC1)n1nnc2ccccc21`, for which the TGI was 34.7 µM in the experiment on COLO 205 colon, 47.7 µM with SK-MEL-2 melanoma and 35.3 µM with SK-MEL-5 melanoma.

In the case of `Cc1ccc(S(=O)(=O)n2cc(-c3cc(C(F)(F)F)ccn3)c3cc(Br)ccc32)cc1`, the TGI is greater than 100 µM in the experiment on COLO 205 colon, 10.8 µM in the experiment with SK-MEL-2 melanoma and 82.9 µM with SK-MEL-5 melanoma.

On to `CCc1n[nH]c(=O)n1/N=C/c1c(O)ccc2ccccc12`, for which the TGI in the experiment on COLO 205 colon, in the experiment on SK-MEL-2 melanoma and in the experiment on SK-MEL-5 melanoma was greater than 100 µM each time.

For the compound `CCc1c2c([nH]c(=S)c1C#N)CCC2`, the TGI in the experiment with COLO 205 colon, in the experiment with SK-MEL-2 melanoma and in the experiment with SK-MEL-5 melanoma was greater than 100 µM in each case.

Take `O=C1CCCCC/C1=C\c1cccc(Cl)c1`: the TGI with COLO 205 colon, in the experiment with SK-MEL-2 melanoma and with SK-MEL-5 melanoma was greater than 100 µM throughout.

As for `Cc1csc2[n+]1C(=O)/C(=C\c1ccc([N+](=O)[O-])cc1)S2`, the TGI with COLO 205 colon was found to be 39.9 µM; with SK-MEL-2 melanoma, 63.3 µM; in the experiment on SK-MEL-5 melanoma, 55 µM.

Turning to `COCCOC(=O)c1c(C)n([O-])c2cc(Cl)c(Cl)cc2[n+]1=O`, the values for the TGI with COLO 205 colon, in the experiment with SK-MEL-2 melanoma and in the experiment with SK-MEL-5 melanoma were 25 µM, 72.7 µM and 21.6 µM, respectively.

As to `O=C(Nc1ccc(Cl)cc1)NS(=O)(=O)c1coc2cc(F)ccc2c1=O`, the TGI in the experiment with COLO 205 colon, in the experiment with SK-MEL-2 melanoma and in the experiment on SK-MEL-5 melanoma was greater than 100 µM throughout.

With `CSc1nc(C#N)c(/N=C\N(C)C)n1C`, the TGI in the experiment on COLO 205 colon, in the experiment on SK-MEL-2 melanoma and with SK-MEL-5 melanoma was greater than 100 µM throughout.

For `Cc1nc2ccccc2n1COC(Cn1ccnc1)c1ccc(Cl)cc1Cl` (stereo not drawn), the TGI in the experiment with COLO 205 colon is greater than 100 µM; with SK-MEL-2 melanoma it was greater than 100 µM; with SK-MEL-5 melanoma, 53.5 µM.

For the compound `O=S1(=O)N=C(SCc2ccccc2)N(c2ccccc2)c2ccncc21`, the TGI was 38.3 µM in the experiment on COLO 205 colon, greater than 100 µM in the experiment with SK-MEL-2 melanoma and greater than 100 µM in the experiment on SK-MEL-5 melanoma.

Regarding `CS(=O)(=O)c1nc(-c2cc3c(c(S(C)(=O)=O)n2)CCC3)cc2c1CCCCC2`, the TGI in the experiment on COLO 205 colon was greater than 100 µM; with SK-MEL-2 melanoma, 63.1 µM; in the experiment with SK-MEL-5 melanoma, greater than 100 µM.

Take `NC(N)=N/N=C/c1c(-c2ccc(Cl)cc2)nc2sccn12`: the TGI came to 2.87 µM in the experiment on COLO 205 colon, 4.31 µM with SK-MEL-2 melanoma and 3.19 µM in the experiment on SK-MEL-5 melanoma.

As to `CCOC(=O)/C(C#N)=C\c1ccc(N(CCC(=O)O)CCC(=O)O)c(I)c1`, the TGI with COLO 205 colon and with SK-MEL-5 melanoma was greater than 10 µM each time.

As to `C=C(C)C1=CCC[C@]2(C1)N=C(OC)[C@@H](C(C)C)N=C2OC`, the TGI in the experiment with COLO 205 colon, with SK-MEL-2 melanoma and with SK-MEL-5 melanoma was greater than 100 µM in each case.

As for `O=C(ON=C1c2ccccc2C(Br)C(Br)c2ccccc21)c1cc([N+](=O)[O-])cc([N+](=O)[O-])c1` (stereo not drawn), the figures for the TGI with COLO 205 colon, in the experiment with SK-MEL-2 melanoma and in the experiment on SK-MEL-5 melanoma were 40 µM, greater than 71 µM and 30.7 µM, respectively.

With `C1=NCCN2CCN(CCN=Cc3ccc(cc3)OCc3cccc(n3)COc3ccc1cc3)CC2`, the TGI in the experiment with COLO 205 colon and with SK-MEL-2 melanoma was greater than 50 µM in each case.

Consider `O=C(O)c1nc2cc(C(F)(F)F)ccc2nc1Nc1ccc(F)cc1`, for which the TGI in the experiment with COLO 205 colon came out at 37.1 µM; with SK-MEL-2 melanoma it was 26.5 µM; with SK-MEL-5 melanoma, 48.1 µM.

Take `Cc1cc(=O)[nH]c(-n2[nH]c(C)c(CCO)c2=O)n1`: the TGI in the experiment with COLO 205 colon, in the experiment with SK-MEL-2 melanoma and in the experiment with SK-MEL-5 melanoma was greater than 100 µM throughout.

Turning to `O=C1/C(=C\c2ccc(O)cc2)CCC/C1=C/c1ccc(Cl)c(Cl)c1`, the TGI in the experiment on COLO 205 colon turned out to be 3.67 µM; with SK-MEL-2 melanoma, 36.9 µM; in the experiment on SK-MEL-5 melanoma, 19.6 µM.

Consider `CC(C)OC(=O)c1ccc(NCc2cc(O)ccc2O)cc1Cl`, for which the results for the concentration for total growth inhibition (TGI) with COLO 205 colon, with SK-MEL-2 melanoma and in the experiment on SK-MEL-5 melanoma were 9.08 µM, greater than 55 µM and 11.1 µM, respectively.

Take `O=C1NC2ON=C(c3ccccc3)C2C2ON=C(c3ccccc3)N12` (stereo not drawn): the TGI in the experiment on COLO 205 colon and in the experiment with SK-MEL-5 melanoma was greater than 100 µM each time.

In the case of `CC1C2(C)OC(=N)C(C#N)(C(c3ccccc3)O2)C1(C#N)C#N` (stereo not drawn), the TGI is 30.4 µM with COLO 205 colon, 42.7 µM in the experiment with SK-MEL-2 melanoma and 30.3 µM with SK-MEL-5 melanoma.

As for `O=C1C(Cl)C2(CC(/C=C/c3ccccc3Cl)=NN2c2cccc(S(=O)(=O)O)c2)N1c1nc2ccccc2s1` (stereo not drawn), the TGI in the experiment with COLO 205 colon, with SK-MEL-2 melanoma and in the experiment with SK-MEL-5 melanoma was greater than 100 µM throughout.

As to `Cc1cc2ccccc2n2c1nc1ccccc12`, the TGI in the experiment with COLO 205 colon and in the experiment with SK-MEL-5 melanoma was greater than 100 µM each time.

Turning to `C=C1c2ccccc2C(=O)c2c1c1c(C(=O)OC)c(O)ccc1n2Cc1ccccc1`, the values for the TGI with COLO 205 colon, in the experiment on SK-MEL-2 melanoma and in the experiment with SK-MEL-5 melanoma were 3.72 µM, 2.39 µM and 1.97 µM, respectively.
